From patent US7745495B2, “Pyridine ketones with herbicidal effect” (Syngenta Crop Protection, Inc., priority 2004, dated 2010)

Key:
Format in all cases: in vivo
Abutilon [1] = experiment: Pre-emergence herbicidal action; details: rating 10=total damage, 0=no action; for Pre-emergence herbicidal action: Abutilon: 250 g/ha, after 3 weeks
Description: (§1) Monocotyledonous and dicotyledonous test plants are sown in standard soil in plastic pots. […] The test plants are then grown in a greenhouse under optimum conditions. After a test duration of 3 weeks, the test is evaluated in accordance with a scale of ten ratings (10=total damage, 0=no action). Ratings of from 10 to 7 (especially from 10 to 8) indicate good to very good herbicidal action.

Amaranthus = experiment: Pre-emergence herbicidal action; details: rating 10=total damage, 0=no action; for Pre-emergence herbicidal action: Amaranthus: 250 g/ha, after 3 weeks
Description: as §1

Digitaria [2] = experiment: Pre-emergence herbicidal action; details: rating 10=total damage, 0=no action; for Pre-emergence herbicidal action: Digitaria: 250 g/ha, after 3 weeks
Description: as §1

Echinochloa = experiment: Pre-emergence herbicidal action; details: rating 10=total damage, 0=no action; for Pre-emergence herbicidal action: Echinochloa: 250 g/ha, after 3 weeks
Description: as §1

Panicum [3] = experiment: Pre-emergence herbicidal action; details: rating 10=total damage, 0=no action; for Pre-emergence herbicidal action: Panicum: 250 g/ha, after 3 weeks; for Pre-emergent Herbicidal Activity: Panicum: Table B4
Description: as §1

Chenopodium [4] = experiment: Pre-emergence herbicidal action; details: 250 g/ha; after 3 weeks; rating 10=total damage, 0=no action
Description: (§2) Monocotyledonous and dicotyledonous test plants are sown in standard soil in plastic pots. Immediately after sowing, the test compounds, in the form of an aqueous suspension (prepared from a 25% wettable powder (Example F3, b) according to WO 97/34485) or in the form of an emulsion (prepared from a 25% emulsifiable concentrate (Example F1, c)), are applied by spraying a concentration corresponding to 125 g or 250 g of active ingredient/ha (500 liter of water/ha). The test plants are then grown in a greenhouse under optimum conditions. After a test duration of 3 weeks, the test is evaluated in accordance with a scale of ten ratings (10=total damage, 0=no action). Ratings of from 10 to 7 (especially from 10 to 8) indicate good to very good herbicidal action.

Stellaria [5] = experiment: Pre-emergence herbicidal action; details: 250 g/ha; after 3 weeks; rating 10=total damage, 0=no action
Description: as §2

Corn = experiment: Pre-emergent herbicidal activity on crop plant; details: crop plant, rating 10=total damage, 0=no action; for Pre-emergent Herbicidal Activity: Mais: Table B5
Description: as §1
(§3) In the following Table B3, the pre-emergent herbicidal activity of compound H-14 according to the invention is compared with 4 compounds according to the prior art. All compounds are structurally identical except for the nature of the alkylene linker attached to the pyridine ring.

Soya = experiment: Pre-emergent herbicidal activity on crop plant; details: crop plant, rating 10=total damage, 0=no action; for Pre-emergent Herbicidal Activity: Soja: Table B5
Description: as §1, §3

Brachiaria = experiment: Pre-emergent herbicidal activity; details: rating 10=total damage, 0=no action
Description: as §1, §3

Setaria [6] = experiment: Pre-emergent herbicidal activity; details: Table B3, rating 10=total damage, 0=no action
Description: as §1, §3

Abutilon [7] = experiment: Post-emergence herbicidal action; details: 250 g/ha; 4- to 6-leaf stage; after about 18 days; rating 10=total damage, 0=no action
Description: (§4) In a greenhouse, monocotyledonous and dicotyledonous test plants are grown in standard soil in plastic pots and at the 4- to 6-leaf stage are sprayed with an aqueous suspension of the test compounds of formula I prepared from a 25% wettable powder (Example F3, b) according to WO 97/34485) or with an emulsion of the test compounds of formula I prepared from a 25% emulsifiable concentrate (Example F1, c) according to WO 97/34485), in a concentration corresponding to 125 g or 250 g of active ingredient/ha (500 liter of water/ha). The test plants are then grown on in a greenhouse under optimum conditions. After a test duration of about 18 days, the test is evaluated in accordance with a scale of ten ratings (10=total damage, 0=no action). Ratings of from 10 to 7 (especially from 10 to 8) indicate good to very good herbicidal action.

Chenopodium [8] = experiment: Post-emergence herbicidal action; details: 250 g/ha; 4- to 6-leaf stage; after about 18 days; rating 10=total damage, 0=no action
Description: as §4

Digitaria [9] = experiment: Post-emergence herbicidal action; details: 250 g/ha; 4- to 6-leaf stage; after about 18 days; rating 10=total damage, 0=no action
Description: as §4

Ipomea = experiment: Post-emergence herbicidal action; details: 250 g/ha; 4- to 6-leaf stage; after about 18 days; rating 10=total damage, 0=no action
Description: as §4

Panicum [10] = experiment: Post-emergence herbicidal action; details: 250 g/ha; 4- to 6-leaf stage; after about 18 days; rating 10=total damage, 0=no action
Description: as §4

Setaria [11] = experiment: Post-emergence herbicidal action; details: 250 g/ha; 4- to 6-leaf stage; after about 18 days; rating 10=total damage, 0=no action
Description: as §4

Sinapis = experiment: Post-emergence herbicidal action; details: 250 g/ha; 4- to 6-leaf stage; after about 18 days; rating 10=total damage, 0=no action
Description: as §4

Stellaria [12] = experiment: Post-emergence herbicidal action; details: 250 g/ha; 4- to 6-leaf stage; after about 18 days; rating 10=total damage, 0=no action
Description: as §4

Xanthium = experiment: Pre-emergent herbicidal activity; details: Table B4, rating 10=total damage, 0=no action
Description: as §1
In the following Table B4, the pre-emergent herbicidal activity of compound H-3 according to the invention is compared with compound D according to the prior art. Both compounds are structurally identical except for the length of the alkylene linker attached to the pyridine ring.

Scirpus = experiment: Pre-emergent herbicidal activity; details: Table B5, rating 10=total damage, 0=no action
Description: as §1
In the following Table B5, the pre-emergent herbicidal activity of compound H-9 according to the invention is compared with compound E according to the prior art. Both compounds are structurally identical except for the length of the alkylene linker attached to the pyridine ring.

COCCCc1nc(C(F)(F)F)ccc1C(=O)C1C(=O)C2CCC(C2)C1=O (stereo not shown) [Compound H-14, 3-[6-trifluoromethyl-2-(3-methoxy-propyl)-pyridine-3-carbonyl]-bicyclo[3.2.1]octane-2,4-dione]
Pre-emergence herbicidal action: Abutilon (Abutilon [1]): 10
Pre-emergent Herbicidal Activity: Abutilon (Abutilon [1]; Table B3, 15 g/ha): 9
Pre-emergent Herbicidal Activity: Abutilon (Abutilon [1]; Table B3, 30 g/ha): 10
Pre-emergence herbicidal action: Amaranthus (Amaranthus): 10
Pre-emergent Herbicidal Activity: Amaranthus (Amaranthus; Table B3, 15 g/ha): 7
Pre-emergent Herbicidal Activity: Amaranthus (Amaranthus; Table B3, 30 g/ha): 7
Pre-emergence herbicidal action: Digitaria (Digitaria [2]): 10
Pre-emergence herbicidal action: Echinochloa (Echinochloa): 10
Pre-emergent Herbicidal Activity: Echinochloa (Echinochloa; Table B3, 15 g/ha): 9
Pre-emergent Herbicidal Activity: Echinochloa (Echinochloa; Table B3, 30 g/ha): 10
Pre-emergence herbicidal action: Panicum (Panicum [3]): 10
Pre-emergence herbicidal action: Chenopodium (Chenopodium [4]): 10
Pre-emergence herbicidal action: Stellaria (Stellaria [5]): 8
Pre-emergent Herbicidal Activity: Corn (Corn; Table B3, 15 g/ha): 0
Pre-emergent Herbicidal Activity: Corn (Corn; Table B3, 30 g/ha): 0
Pre-emergent Herbicidal Activity: Soya (Soya; Table B3, 15 g/ha): 1
Pre-emergent Herbicidal Activity: Soya (Soya; Table B3, 30 g/ha): 3
Pre-emergent Herbicidal Activity: Brachiaria (Brachiaria; Table B3, 15 g/ha): 7
Pre-emergent Herbicidal Activity: Brachiaria (Brachiaria; Table B3, 30 g/ha): 8
Pre-emergent Herbicidal Activity: Setaria (Setaria [6]; 15 g/ha): 9
Pre-emergent Herbicidal Activity: Setaria (Setaria [6]; 30 g/ha): 10
Post-emergence herbicidal action: Abutilon (Abutilon [7]): 10
Post-emergence herbicidal action: Chenopodium (Chenopodium [8]): 10
Post-emergence herbicidal action: Digitaria (Digitaria [9]): 9
Post-emergence herbicidal action: Ipomea (Ipomea): 10
Post-emergence herbicidal action: Panicum (Panicum [10]): 10
Post-emergence herbicidal action: Setaria (Setaria [11]): 10
Post-emergence herbicidal action: Sinapis (Sinapis): 10
Post-emergence herbicidal action: Stellaria (Stellaria [12]): 10

COCCCc1nc(C(F)(F)F)ccc1C(=O)C1C(=O)C2CCC(C)(C2)C1=O (stereo not shown) [Compound H-16]
Pre-emergence herbicidal action: Abutilon (Abutilon [1]): 10
Pre-emergence herbicidal action: Amaranthus (Amaranthus): 8
Pre-emergence herbicidal action: Digitaria (Digitaria [2]): 10
Pre-emergence herbicidal action: Echinochloa (Echinochloa): 10
Pre-emergence herbicidal action: Panicum (Panicum [3]): 10
Pre-emergence herbicidal action: Chenopodium (Chenopodium [4]): 9
Pre-emergence herbicidal action: Stellaria (Stellaria [5]): 8
Post-emergence herbicidal action: Abutilon (Abutilon [7]): 9
Post-emergence herbicidal action: Chenopodium (Chenopodium [8]): 10
Post-emergence herbicidal action: Digitaria (Digitaria [9]): 9
Post-emergence herbicidal action: Ipomea (Ipomea): 9
Post-emergence herbicidal action: Panicum (Panicum [10]): 10
Post-emergence herbicidal action: Setaria (Setaria [11]): 10
Post-emergence herbicidal action: Sinapis (Sinapis): 10
Post-emergence herbicidal action: Stellaria (Stellaria [12]): 10

COCCCc1nc(C(F)F)ccc1C(=O)C1C(=O)C2CCCC(C2)C1=O (stereo not shown) [Compound H-21]
Pre-emergence herbicidal action: Abutilon (Abutilon [1]): 7
Pre-emergence herbicidal action: Amaranthus (Amaranthus): 7
Pre-emergence herbicidal action: Digitaria (Digitaria [2]): 10
Pre-emergence herbicidal action: Echinochloa (Echinochloa): 9
Pre-emergence herbicidal action: Panicum (Panicum [3]): 10
Pre-emergence herbicidal action: Chenopodium (Chenopodium [4]): 10
Pre-emergence herbicidal action: Stellaria (Stellaria [5]): 10
Post-emergence herbicidal action: Abutilon (Abutilon [7]): 8
Post-emergence herbicidal action: Chenopodium (Chenopodium [8]): 9
Post-emergence herbicidal action: Digitaria (Digitaria [9]): 9
Post-emergence herbicidal action: Ipomea (Ipomea): 8
Post-emergence herbicidal action: Panicum (Panicum [10]): 9
Post-emergence herbicidal action: Setaria (Setaria [11]): 8
Post-emergence herbicidal action: Sinapis (Sinapis): 9
Post-emergence herbicidal action: Stellaria (Stellaria [12]): 8

COCc1nc(C(F)F)ccc1C(=O)C1C(=O)C2CCC(C2)C1=O (stereo not shown) [D, reference compound]
Pre-emergent Herbicidal Activity: Abutilon (Abutilon [1]; Table B4, 30 g/ha): 6
Pre-emergent Herbicidal Activity: Abutilon (Abutilon [1]; Table B4, 60 g/ha): 9
Pre-emergent Herbicidal Activity: Amaranthus (Amaranthus; Table B4, 30 g/ha): 7
Pre-emergent Herbicidal Activity: Amaranthus (Amaranthus; Table B4, 60 g/ha): 7
Pre-emergent Herbicidal Activity: Digitaria (Digitaria [2]; Table B4, 30 g/ha): 7
Pre-emergent Herbicidal Activity: Digitaria (Digitaria [2]; Table B4, 60 g/ha): 9
Pre-emergent Herbicidal Activity: Echinochloa (Echinochloa; Table B4, 30 g/ha): 5
Pre-emergent Herbicidal Activity: Echinochloa (Echinochloa; Table B4, 60 g/ha): 7
Pre-emergent Herbicidal Activity: Panicum (Panicum [3]; 30 g/ha): 8
Pre-emergent Herbicidal Activity: Panicum (Panicum [3]; 60 g/ha): 9
Pre-emergent Herbicidal Activity: Corn (Corn; Table B4, 30 g/ha): 0
Pre-emergent Herbicidal Activity: Corn (Corn; Table B4, 60 g/ha): 0
Pre-emergent Herbicidal Activity: Soya (Soya; Table B4, 30 g/ha): 2
Pre-emergent Herbicidal Activity: Soya (Soya; Table B4, 60 g/ha): 3
Pre-emergent Herbicidal Activity: Xanthium (Xanthium; 30 g/ha): 0
Pre-emergent Herbicidal Activity: Xanthium (Xanthium; 60 g/ha): 0

COCc1nc(C(F)(F)Cl)ccc1C(=O)C1C(=O)C2CCC(C2)C1=O (stereo not shown) [E, reference compound]
Pre-emergent Herbicidal Activity: Abutilon (Abutilon [1]; Table B5, 30 g/ha): 0
Pre-emergent Herbicidal Activity: Abutilon (Abutilon [1]; Table B5, 60 g/ha): 0
Pre-emergent Herbicidal Activity: Amaranthus (Amaranthus; Table B5, 30 g/ha): 5
Pre-emergent Herbicidal Activity: Amaranthus (Amaranthus; Table B5, 60 g/ha): 7
Pre-emergent Herbicidal Activity: Digitaria (Digitaria [2]; Table B5, 30 g/ha): 6
Pre-emergent Herbicidal Activity: Digitaria (Digitaria [2]; Table B5, 60 g/ha): 6
Pre-emergent Herbicidal Activity: Echinochloa (Echinochloa; Table B5, 30 g/ha): 8
Pre-emergent Herbicidal Activity: Echinochloa (Echinochloa; Table B5, 60 g/ha): 9
Pre-emergent Herbicidal Activity: Mais (Corn; 30 g/ha): 0
Pre-emergent Herbicidal Activity: Mais (Corn; 60 g/ha): 0
Pre-emergent Herbicidal Activity: Soja (Soya; 30 g/ha): 2
Pre-emergent Herbicidal Activity: Soja (Soya; 60 g/ha): 4
Pre-emergent Herbicidal Activity: Brachiaria (Brachiaria; Table B5, 30 g/ha): 0
Pre-emergent Herbicidal Activity: Brachiaria (Brachiaria; Table B5, 60 g/ha): 0
Pre-emergent Herbicidal Activity: Scirpus (Scirpus; 30 g/ha): 9
Pre-emergent Herbicidal Activity: Scirpus (Scirpus; 60 g/ha): 9
